According to US20250136595A1, “ACYLATED HETEROCYCLIC QUINAZOLINE DERIVATIVES AS INHIBITORS OF ERBB2” (Enliven Inc., priority 2022, published 2025):

Assays:
[1] = target: T1, phosphorylated ERBB2 (pERBB2) (Homo sapiens, UniProt P04626); test: Detection of phosphorylated ERBB2 (pERBB2) by ELISA in BT-474 cells; assay type: cell-based; conditions: four hour incubation with compound
T1 construct: endogenous in cells; host or cells: BT-474
Procedure: BT-474 cells were seeded into a 96-well at 2.0*10^4 cells/100 μl/well. Compounds were dissolved and serially diluted in DMSO. The compounds were then were added, mixed, and incubated for four hours at 37° C., 5% CO2. Compounds were added using four-fold dilutions at final concentrations ranging from 10 μM to 0.01 nM. Following the four hour incubation with compounds, cell lysates were prepared. Plates were centrifuged for 5 min at 3000 RPM, and supernatant was removed from each well. Cells were washed 3 times by resuspension in 150 μl PBS, followed by centrifugation and removal of the supernatant, as above. […] Cells were incubated with lysis buffer for 1 hour at 4° C., and then stored at -80° C. Enzyme-linked immunosorbent assays (ELISA) were performed to measure phosphorylated ERBB2 levels. […] The next day, plates were washed with PBS+0.05% Tween20 (PBST). 150 μl of 5% BSA blocking solution was added for 1 hour at room temperature, with shaking. Plates were washed with PBST. Cell lysates were thawed and 100 μl of lysate was added to the ELISA plate. The plates were incubated for 2 hours at room temperature, with shaking. […] Plates were incubated for 1 hour at room temperature, with shaking. Plates were then washed with PBST, and 100 μl TMB substrate solution (R&D Systems, cat #DY999) was added. Plate were incubated in the dark for 20 minutes at room temperature. 50 μl of Stop solution (R&D Systems, cat #DY994) (50 μl) was added to each well and mixed. Optical density at 450 nm was read on an EnSpire plate reader (Perkin Elmer). The remaining kinase activity by calculated using the following formula: % Relative activity=100×([…]). The low and high control values (“LC” and “HC”) were generated from lysate from wells without cells or with cells treated with 0.1% DMSO, respectively.

[2] = target: T2, phosphorylated EGFR (pEGFR) (Homo sapiens, UniProt P00533); test: Detection of phosphorylated EGFR (pEGFR) in EGF-stimulated A431 cells (AlphaLISA); assay type: cell-based; conditions: A431 cells (10% FBS), 4 hours incubation, EGF 30 ng/mL for 10 minutes
T2 construct: performed to measure phosphorylated EGFR levels using A431 cells; endogenous in cells; host or cells: A431
T2 sequence (P00533 25-1210): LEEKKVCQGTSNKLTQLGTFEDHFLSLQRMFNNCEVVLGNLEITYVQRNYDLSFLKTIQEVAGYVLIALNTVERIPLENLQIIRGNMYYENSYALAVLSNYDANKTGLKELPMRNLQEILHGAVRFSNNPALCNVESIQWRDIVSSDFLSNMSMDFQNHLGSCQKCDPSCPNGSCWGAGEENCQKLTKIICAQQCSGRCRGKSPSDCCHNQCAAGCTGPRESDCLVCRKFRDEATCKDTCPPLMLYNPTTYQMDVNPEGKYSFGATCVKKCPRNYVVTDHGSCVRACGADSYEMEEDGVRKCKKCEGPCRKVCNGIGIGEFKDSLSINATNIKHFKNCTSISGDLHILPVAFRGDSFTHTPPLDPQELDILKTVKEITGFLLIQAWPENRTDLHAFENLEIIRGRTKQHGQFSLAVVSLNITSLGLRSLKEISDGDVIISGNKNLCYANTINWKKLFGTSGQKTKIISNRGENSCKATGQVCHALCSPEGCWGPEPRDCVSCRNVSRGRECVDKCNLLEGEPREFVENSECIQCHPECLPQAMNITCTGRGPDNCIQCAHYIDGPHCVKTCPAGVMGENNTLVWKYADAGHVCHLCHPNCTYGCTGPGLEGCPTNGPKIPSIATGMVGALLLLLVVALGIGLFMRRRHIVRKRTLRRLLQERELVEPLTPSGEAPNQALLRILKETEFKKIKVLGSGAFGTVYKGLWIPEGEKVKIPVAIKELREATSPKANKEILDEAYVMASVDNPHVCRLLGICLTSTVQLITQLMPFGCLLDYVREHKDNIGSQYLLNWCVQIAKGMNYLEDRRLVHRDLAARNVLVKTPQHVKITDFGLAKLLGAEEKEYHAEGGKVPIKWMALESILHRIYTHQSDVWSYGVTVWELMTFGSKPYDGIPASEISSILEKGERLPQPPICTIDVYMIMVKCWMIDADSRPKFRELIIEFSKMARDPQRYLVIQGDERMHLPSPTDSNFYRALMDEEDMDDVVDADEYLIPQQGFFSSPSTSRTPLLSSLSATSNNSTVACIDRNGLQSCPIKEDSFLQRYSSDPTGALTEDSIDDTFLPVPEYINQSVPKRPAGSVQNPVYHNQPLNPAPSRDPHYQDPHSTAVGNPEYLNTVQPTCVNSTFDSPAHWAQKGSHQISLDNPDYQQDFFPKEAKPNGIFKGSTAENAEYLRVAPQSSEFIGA
Procedure: Enzyme-linked immunosorbent assays (ELISA) were performed to measure phosphorylated EGFR levels using A431 cells (10% FBS). A431 (1.0*10^4 cells/40 μl/well) cells were seeded in 384 well. Compounds were dissolved in DMSO, serially diluted in DMSO and then were added, mixed, and incubated for 4 hours at 37° C., 5% CO2. Following the 4-hours incubation, cells were stimulated for 10 minutes with EGF (Invitrogen, cat #PHG0311) at a final concentration of 30 ng/mL in the incubator. The media was aspirated and cells were lysed in 10 μL lysis buffer with protease and phosphatase inhibitors (PerkinElmer, cat #ALSU-PEGFR-A50K). The plates were placed on a shaker for 5 minutes and then incubated for 30 min at 4° C. for complete lysis. The lysate was transferred to an Optiplate (Perkin Elmer, cat #6007290).
Acceptor mix (PerkinElmer, cat #ALSU-PEGFR-A50K) was prepared just before use and 5 μL was dispensed to all the wells, followed by a 1.5-2 h incubation at room temperature in dark. The donor mix (PerkinElmer, cat #ALSU-PEGFR-A50K) was prepared under low light conditions prior to use and 5 μl of donor mix was added to all the wells under subdued lighting or green filters. The plates were placed on a shaker for 5 min, sealed, and incubated overnight at room temperature in dark. Plates were read on the Envision (PerkinElmer) using standard AlphaLISA settings.
The percentage of inhibition on EGFR phosphorylation was calculated following equation: % Inhibition=100×(LumHC−LumSample)/(LumHC−LumLC). The low and high controls (LC/HC) are generated from lysate from wells with cells treated with DMSO or […] Staurosporine (BioAustralis, cat #BIA-S1086), […]. IC50 values were calculated by fitting the Curve using XLfit (v5.3.1.3), equation 201: Y=Bottom+ (Top−Bottom)/(1+10^((LogIC50−X)*HillSlope)).

Ba/F3 ERBB2 YVMA = Ba/F3 ERBB2 YVMA (Homo sapiens, UniProt P04626, DUP772-775, cells depend on it); test: Cell viability assay (CellTiter Glo) in Ba/F3 cells engineered to express ERBB2 YVMA; assay type: cell-based, mouse; conditions: Ba/F3 cells expressing human ERBB2 YVMA mutant, 72 hours, % viability, read-out: Ba/F3 ERBB2 YVMA IC50
Sequence of Ba/F3 ERBB2 YVMA (P04626 with tags, fused parts or gaps DUP772-775): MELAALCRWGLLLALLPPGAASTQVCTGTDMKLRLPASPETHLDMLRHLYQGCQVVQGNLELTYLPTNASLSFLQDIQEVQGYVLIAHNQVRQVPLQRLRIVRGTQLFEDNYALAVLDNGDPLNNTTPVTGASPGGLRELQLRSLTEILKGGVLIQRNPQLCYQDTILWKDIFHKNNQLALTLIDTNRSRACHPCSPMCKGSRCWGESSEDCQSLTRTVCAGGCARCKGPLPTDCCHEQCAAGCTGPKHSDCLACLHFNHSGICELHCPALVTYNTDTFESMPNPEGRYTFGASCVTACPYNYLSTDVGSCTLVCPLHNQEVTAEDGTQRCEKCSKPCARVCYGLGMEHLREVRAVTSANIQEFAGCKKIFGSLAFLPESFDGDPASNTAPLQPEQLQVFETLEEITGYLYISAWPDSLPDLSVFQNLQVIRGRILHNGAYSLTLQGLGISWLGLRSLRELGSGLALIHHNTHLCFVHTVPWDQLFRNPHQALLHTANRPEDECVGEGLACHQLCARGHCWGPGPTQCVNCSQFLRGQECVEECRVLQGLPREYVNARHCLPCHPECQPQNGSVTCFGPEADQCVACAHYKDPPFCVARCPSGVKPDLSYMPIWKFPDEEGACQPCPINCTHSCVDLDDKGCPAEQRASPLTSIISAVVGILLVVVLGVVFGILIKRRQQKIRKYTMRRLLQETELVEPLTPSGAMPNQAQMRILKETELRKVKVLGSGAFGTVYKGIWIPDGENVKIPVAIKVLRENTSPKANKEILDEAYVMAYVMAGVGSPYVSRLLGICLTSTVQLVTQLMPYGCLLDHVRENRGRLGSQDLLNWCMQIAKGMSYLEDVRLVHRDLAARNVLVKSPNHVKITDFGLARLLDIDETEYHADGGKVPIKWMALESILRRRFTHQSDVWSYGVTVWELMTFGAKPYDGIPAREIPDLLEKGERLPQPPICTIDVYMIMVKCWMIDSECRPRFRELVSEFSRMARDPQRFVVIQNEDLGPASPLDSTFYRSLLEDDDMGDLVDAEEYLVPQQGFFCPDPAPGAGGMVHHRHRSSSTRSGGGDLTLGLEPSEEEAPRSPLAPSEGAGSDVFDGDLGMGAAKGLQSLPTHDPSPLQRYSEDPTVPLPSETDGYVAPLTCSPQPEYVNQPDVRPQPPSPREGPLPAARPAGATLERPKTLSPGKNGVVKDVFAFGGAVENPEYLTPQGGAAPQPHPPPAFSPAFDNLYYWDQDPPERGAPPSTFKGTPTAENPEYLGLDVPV
Procedure: Cells were treated with compounds, and cell viability was measured as a metric of kinase inhibition.
The Ba/F3 cell line is IL-3-dependent mouse cell line derived from the C3H mouse strain. Ba/F3 cell lines were engineered to express human ERBB2 or EGFR kinases, rendering the cells IL-3 independent. The lines were generated via retroviral transduction utilizing a Moloney murine leukemia virus (MMLV) promoter, and constructs are stably integrated into the cell genome. The sequences of the ERBB2 and EGFR genes used were NCBI Reference Sequences NM_004448.3 and NM_005228.3, respectively.
Similarly, Ba/F3 cell lines engineered to express EGFR, ERBB2, or ERBB2 mutants were grown, harvested, counted and seeded at 3000 cells per well in 96-well plates for the data sets shown in Tables B3-B4. A subset of wells contained media only (low control, “LC”).
Table B1 provides the growth media and number of cells seeded per well for the each cell line.
Compounds were dissolved in DMSO and serially diluted. Serially-diluted compound or a DMSO only control (high control, “HC”) was added to the plated cells in each well. […] The final proportion of DMSO never exceeded 0.1%.
Plates were placed in a 37° C., 5% CO2 incubator for 72 hours. Plates were then removed from the incubator and equilibrated for 15 minutes at room temperature. 40 μl of CellTiter Glo reagent (Promega) was added to measure the relative level of metabolically active cells by quantifying intracellular ATP concentrations. Plates were incubated for 30 minutes at room temperature, and luminescence was measured. Percent viability was normalized to a vehicle control only using the following formula: % viability=100×(Lumsample−LumLC)/(LumHC−LumLC). Graphical curves were fitted using a nonlinear regression model with a sigmoidal dose response.

T1 sequence (P04626 23-1255): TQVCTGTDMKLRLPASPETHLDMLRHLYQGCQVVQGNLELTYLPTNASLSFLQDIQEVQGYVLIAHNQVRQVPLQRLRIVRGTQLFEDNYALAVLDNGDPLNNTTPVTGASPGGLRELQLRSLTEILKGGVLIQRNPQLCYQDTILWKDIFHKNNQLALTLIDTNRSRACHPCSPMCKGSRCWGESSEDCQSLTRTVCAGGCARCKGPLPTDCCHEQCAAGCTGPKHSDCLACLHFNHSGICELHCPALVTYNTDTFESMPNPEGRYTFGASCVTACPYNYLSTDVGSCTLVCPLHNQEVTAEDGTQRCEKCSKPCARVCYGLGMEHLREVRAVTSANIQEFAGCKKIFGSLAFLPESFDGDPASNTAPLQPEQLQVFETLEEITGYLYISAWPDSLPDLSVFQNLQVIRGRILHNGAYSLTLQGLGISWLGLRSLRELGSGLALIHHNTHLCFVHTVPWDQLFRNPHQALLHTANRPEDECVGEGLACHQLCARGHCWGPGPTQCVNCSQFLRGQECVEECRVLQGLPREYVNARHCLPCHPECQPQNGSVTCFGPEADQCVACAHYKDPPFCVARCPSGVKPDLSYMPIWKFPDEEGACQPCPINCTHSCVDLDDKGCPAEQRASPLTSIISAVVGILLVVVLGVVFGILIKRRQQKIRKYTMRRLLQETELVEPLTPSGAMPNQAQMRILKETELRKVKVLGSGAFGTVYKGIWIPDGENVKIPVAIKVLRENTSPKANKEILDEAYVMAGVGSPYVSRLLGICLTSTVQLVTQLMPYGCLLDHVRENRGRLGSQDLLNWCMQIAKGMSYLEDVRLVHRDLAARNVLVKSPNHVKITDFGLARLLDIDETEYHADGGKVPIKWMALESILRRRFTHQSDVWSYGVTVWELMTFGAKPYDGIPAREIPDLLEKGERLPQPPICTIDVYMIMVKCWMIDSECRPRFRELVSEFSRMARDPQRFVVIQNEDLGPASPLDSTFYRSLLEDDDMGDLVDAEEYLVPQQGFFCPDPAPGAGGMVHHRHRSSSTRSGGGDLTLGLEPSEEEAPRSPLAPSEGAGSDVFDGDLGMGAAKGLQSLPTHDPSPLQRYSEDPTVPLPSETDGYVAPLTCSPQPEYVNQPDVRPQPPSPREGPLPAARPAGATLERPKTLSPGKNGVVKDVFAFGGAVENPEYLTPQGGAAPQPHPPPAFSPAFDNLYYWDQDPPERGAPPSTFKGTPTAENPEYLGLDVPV

Structure (SMILES)	IC50 [1] [nM]	IC50 [2] [µM]	GI50 (Ba/F3 ERBB2 YVMA) [nM]
C=CC(=O)N1CCN(c2cc3c(Nc4ccc(Oc5ccn6ncnc6c5)c(C)c4)ncnc3cn2)CC1 [Compound 109, 1-(4-(4-((4-([1,2,4]triazolo[1,5-a]pyridin-7-yloxy)-3-methylphenyl)amino)pyrido[3,4-d]pyrimidin-6-yl)piperazin-1-yl)prop-2-en-1-one]	10.2	0.839	13.4
C=CC(=O)N1CCC2(C1)CN(c1ccc3ncnc(Nc4ccc(Oc5ccn6ncnc6c5)c(C)c4)c3n1)C2 [Compound 21, 1-(2-{4-[(3-methyl-4-{[1,2,4]triazolo[1,5-a]pyridin-7-yloxy}phenyl)amino]pyrido[3,2-d]pyrimidin-6-yl}-2,6-diazaspiro[3.4]octan-6-yl)prop-2-en-1-one]	12.1	9.42	9.76
Cc1cc(Nc2ncnc3ccc(N4CCN(C(=O)/C=C/CN(C)C)[C@H](C)C4)nc23)ccc1Cc1ccn2ncnc2c1 [Compound 117, (R,E)-1-(4-(4-((4-([1,2,4]triazolo[1,5-a]pyridin-7-ylmethyl)-3-methylphenyl)amino)pyrido[3,2-d]pyrimidin-6-yl)-2-methylpiperazin-1-yl)-4-(dimethylamino)but-2-en-1-one]	24.5	> 10	25.1
C=CC(=O)N1[C@H](C)CN(c2ccc3ncnc(Nc4ccc(Oc5ccn6ncnc6c5)c(C)c4)c3n2)C[C@H]1C [Compound 61, 1-[(2R,6R)-2,6-dimethyl-4-{4-[(3-methyl-4-{[1,2,4]triazolo[1,5-a]pyridin-7-yloxy}phenyl)amino]pyrido[3,2-d]pyrimidin-6-yl}piperazin-1-yl]prop-2-en-1-one]	254	> 10	> 500
C=CC(=O)N1CCN(c2ccc3ncnc(Nc4ccc(Cc5ccn6ncnc6c5)c(C)c4)c3c2F)C[C@H]1C [Compound 62, 1-[(2R)-4-{5-fluoro-4-[(3-methyl-4-{[1,2,4]triazolo[1,5-a]pyridin-7-ylmethyl}phenyl)amino]quinazolin-6-yl}-2-methylpiperazin-1-yl]prop-2-en-1-one]	46.9	> 10	22.7
C=CC(=O)N1CCN(c2cc3c(Nc4ccc(Oc5ccc6c(c5)ncn6C)c(C)c4)ncnc3cn2)C[C@H]1C [Compound 59, 1-[(2R)-2-methyl-4-[4-({3-methyl-4-[(1-methyl-1,3-benzodiazol-5-yl)oxy]phenyl}amino)pyrido[3,4-d]pyrimidin-6-yl]piperazin-1-yl]prop-2-en-1-one]	20.1	3.8	27.4
CC#CC(=O)N1CC[C@H](Oc2ccc3ncnc(Nc4ccc(Oc5ccc6c(c5)ncn6C)c(C)c4)c3n2)C1 [Compound 50, 1-[(3S)-3-{[4-({3-methyl-4-[(1-methyl-1,3-benzodiazol-5-yl)oxy]phenyl}amino)pyrido[3,2-d]pyrimidin-6-yl]oxy}pyrrolidin-1-yl]but-2-yn-1-one]	480	> 10	52
C=CC(=O)N1CCN(c2ccc3ncnc(Nc4ccc(Cc5ccc6c(c5)ncn6C)c(C)c4)c3c2)[C@@H](C)C1 [Compound 125, (S)-1-(3-methyl-4-(4-((3-methyl-4-((1-methyl-1H-benzo[d]imidazol-5-yl)methyl)phenyl)amino)quinazolin-6-yl)piperazin-1-yl)prop-2-en-1-one]	95.9	> 10	61.2
CC#CC(=O)N1CCN(c2cc3c(Nc4ccc(Oc5ccc6c(c5)ncn6C)c(C)c4)ncnc3cn2)C[C@H]1C [Compound 71, 1-[(2R)-2-methyl-4-[4-({3-methyl-4-[(1-methyl-1,3-benzodiazol-5-yl)oxy]phenyl}amino)pyrido[3,4-d]pyrimidin-6-yl]piperazin-1-yl]but-2-yn-1-one]	22	1.02	20.4
